This passage reports EC50 and IC50 results from patent US10206907B2, “Compounds useful for the treatment of degenerative and inflammatory diseases” (GALAPAGOS NV, priority 2008, dated 2019).

Assay [1] deals with JAK-STAT signalling in HeLa cells. Kind of assay: JAK-STAT signalling assay (OSM-triggered pSTAT1(2)-luciferase reporter in HeLa cells). It counts as cell-based. Conditions: Homo sapiens; HeLa cells, OSM-triggered pSTAT1(2)-luciferase reporter; read-out: STAT signalling EC50. As for the experimental part:
HeLa cells were maintained in Dulbecco's Modified Eagle's Medium (DMEM) containing 10% heat inactivated fetal calf serum, 100 U/mL penicillin and 100 μg/mL streptomycin. HeLa cells were used at 70% confluence for transfection. 20,000 cells in 87 μL cell culture medium were transiently transfected with 40 ng pSTAT1(2)-luciferase reporter (Panomics), 8 ng of LacZ reporter as internal control reporter and 52 ng of pBSK using 0.32 μL Jet-PEI (Polyplus) as transfection reagent per well in 96-well plate format. After overnight incubation at 37° C., 10% CO2, transfection medium was removed.
40 μL of cell lysate was used to read β-galactosidase activity by adding 180 μL βGal solution (30 μl ONPG 4 mg/mL+150 μL β-Galactosidase buffer (0.06 M Na2HPO4, 0.04 M NaH2PO4, 1 mM MgCl2)) for 20 min.
Luciferase activity was measured using 40 μL cell lysate plus 40 μl of Steadylite® as described by the manufacturer (Perkin Elmer), on the Envision (Perkin Elmer).
The positive and negative controls were used to calculate z’ and ‘percent inhibition’ (PIN) values.
PIN values were plotted for compounds tested in dose-response and EC50 values were derived.
In general terms: A reporter such as luciferase makes a cellular process visible.

A further assay has as its system MMP13 in SW1353 cells. Nature of the assay: OSM/IL-1β signaling assay (MMP13 levels in SW1353 cells).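 Note: secreted MMP13 captured by antibody, activated with APMA and its activity read by fluorescence, inhibition scaled between vehicle-treated triggered wells (0%) and untriggered wells (100%).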 The class given is cell-based. Conditions: Homo sapiens; SW1353 cells, OSM and IL-1β triggered, MMP13 levels 48 hours after triggering; read-out: MMP13 EC50.
In assay [2] the target is Recombinant human JAK1 catalytic domain (Homo sapiens (Human), UniProt P23458). Kind of assay: JAK1 inhibition assay. The class given is biochemical. Conditions: semi-quantitative score. In short, it runs like this: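 Radiometric assay read by scintillation counting after phosphoric-acid washes. Percent inhibition calculated from cpm relative to vehicle and 10 μM staurosporine control. IC50 derived from compound dose-dilution series.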
Chain of Recombinant human JAK1 catalytic domain (P23458 850-1154): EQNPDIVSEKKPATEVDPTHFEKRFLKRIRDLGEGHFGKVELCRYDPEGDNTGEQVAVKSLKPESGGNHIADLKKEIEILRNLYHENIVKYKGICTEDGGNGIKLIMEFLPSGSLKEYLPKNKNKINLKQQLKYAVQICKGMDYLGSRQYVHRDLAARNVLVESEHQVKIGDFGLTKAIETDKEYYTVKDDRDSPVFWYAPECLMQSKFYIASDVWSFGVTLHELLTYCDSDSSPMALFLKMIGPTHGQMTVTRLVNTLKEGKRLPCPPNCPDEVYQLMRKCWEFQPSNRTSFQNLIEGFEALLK

Assay [3] deals with Recombinant human JAK2 catalytic domain (Homo sapiens (Human), UniProt O60674). Kind of assay: JAK2 inhibition assay. It counts as biochemical. The conditions noted are these: semi-quantitative score. In short, it runs like this:
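Radiometric kinase reactions ran for 90 min at 30 °C and were stopped with phosphoric acid, then washed and counted by scintillation. Percent inhibition was set relative to vehicle and to 10 μM staurosporine background. IC50 was derived from dose-dilution series.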

As usually defined, the EC50 is the concentration at which the effect is half-maximal. For orientation: IC50 means the midpoint of a concentration-inhibition curve.

Chain of Recombinant human JAK2 catalytic domain (O60674 808-1132): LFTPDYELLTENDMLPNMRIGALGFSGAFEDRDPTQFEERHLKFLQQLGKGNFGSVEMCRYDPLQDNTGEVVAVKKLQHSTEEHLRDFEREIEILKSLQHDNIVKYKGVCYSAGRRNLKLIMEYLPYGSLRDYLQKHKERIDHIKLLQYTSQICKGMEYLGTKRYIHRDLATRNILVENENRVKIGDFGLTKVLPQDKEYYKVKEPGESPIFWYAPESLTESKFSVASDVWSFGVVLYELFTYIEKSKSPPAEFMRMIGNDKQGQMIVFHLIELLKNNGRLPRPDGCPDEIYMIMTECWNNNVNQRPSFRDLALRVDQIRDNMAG

As for `O=C(Nc1nc2cccc(-c3ccc(COc4ccccc4)cc3)n2n1)C1CC1` [Compound 238, Cyclopropanecarboxylic acid [5-(4-phenoxymethyl-phenyl)-[1,2,4]triazolo[1,5-a]pyridin-2-yl]-amide], the EC50 is 501 to 1000 nM in assay [1] and greater than 1000 nM in the assay with MMP13 in SW1353 cells. For the same compound, the IC50 in assay [2] and in assay [3] was less than 100 nM each time.
Turning to `O=C(Nc1nc2cccc(-c3ccc(C(=O)N4CCC(COc5cccnc5)CC4)cc3)n2n1)C1CC1` [Compound 292, Cyclopropanecarboxylic acid (5-{4-[4-(pyridin-3-yloxymethyl)-piperidine-1-carbonyl]-phenyl}-[1,2,4]triazolo[1,5-a]pyridin-2-yl)-amide], the 50% effective concentration (EC50) (in assay [1]; in the assay on MMP13 in SW1353 cells) was greater than 1000 nM throughout. In addition, the IC50 in assay [2] is less than 100 nM; in assay [3], 101 to 500 nM.
For the compound `O=C(Nc1nc2cccc(-c3ccc(C(=O)N4CCCC(CO)C4)cc3)n2n1)C1CC1` (stereo not drawn) [Compound 276, Cyclopropanecarboxylic acid {5-[4-(3-hydroxymethyl-piperidine-1-carbonyl)-phenyl]-[1,2,4]triazolo[1,5-a]pyridin-2-yl}-amide], the EC50 (in assay [1]; in the assay on MMP13 in SW1353 cells) was greater than 1000 nM throughout. The values for the IC50 in assay [2] and in assay [3] were less than 100 nM and 101 to 500 nM, respectively.
Turning to `COc1ccc(CN(C)C(=O)c2ccc(-c3cccc4nc(NC(=O)C5CC5)nn34)cc2)cc1` [Compound 31, 4-(2-(cyclopropanecarboxamido)-[1,2,4]triazolo[1,5-a]pyridin-5-yl)-N-(4-methoxybenzyl)-N-methylbenzamide], the concentration for a half-maximal effect (EC50) (in assay [1]; in the assay on MMP13 in SW1353 cells) was greater than 1000 nM each time. The IC50 in assay [2] was less than 100 nM; in assay [3], 101 to 500 nM.
Take `CC1CCN(C(=O)c2ccc(-c3cccc4nc(NC(=O)C5CC5)nn34)cc2)CC1` [Compound 146, N-(5-(4-(4-methylpiperidine-1-carbonyl)phenyl)-[1,2,4]triazolo[1,5-a]pyridin-2-yl)cyclopropanecarboxamide]: the EC50 (in assay [1]; in the assay on MMP13 in SW1353 cells) was greater than 1000 nM in each case. Further, in assay [2], the IC50 was less than 100 nM.
Consider `CN1CCC(NC(=O)c2ccc(-c3cccc4nc(NC(=O)C5CC5)nn34)cc2)CC1` [Compound 32, 4-(2-(cyclopropanecarboxamido)-[1,2,4]triazolo[1,5-a]pyridin-5-yl)-N-(1-methylpiperidin-4-yl)benzamide], for which the EC50 in the assay with MMP13 in SW1353 cells was greater than 1000 nM. The results for the IC50 in assay [2] and in assay [3] were 501 to 1000 nM and greater than 1000 nM, respectively.
For the compound `O=C(Nc1nc2cccc(-c3ccc(CNc4cccnn4)cc3)n2n1)C1CC1` [Compound 222, Cyclopropanecarboxylic acid {5-[4-(pyridazin-3-ylaminomethyl)-phenyl]-[1,2,4]triazolo[1,5-a]pyridin-2-yl}-amide], the EC50 (in assay [1]; in the assay with MMP13 in SW1353 cells) was greater than 1000 nM throughout. Moreover, the concentration for half-maximal inhibition (IC50) in assay [2] is less than 100 nM; in assay [3] it was 101 to 500 nM.
On to `CN(C)C1CCN(C(=O)c2ccc(-c3cccc4nc(NC(=O)C5CC5)nn34)cc2)C1` (stereo not drawn) [Compound 289, Cyclopropanecarboxylic acid {5-[4-(3-dimethylamino-pyrrolidine-1-carbonyl)-phenyl]-[1,2,4]triazolo[1,5-a]pyridin-2-yl}-amide], for which the EC50 (in assay [1]; in the assay on MMP13 in SW1353 cells) was greater than 1000 nM throughout. Also, the IC50 in assay [2] was less than 100 nM; in assay [3], 501 to 1000 nM.
For the compound `O=C(Nc1nc2cccc(-c3ccc(CNc4cccnc4)cc3)n2n1)C1CC1` [Compound 223, Cyclopropanecarboxylic acid {5-[4-(pyridin-3-ylaminomethyl)-phenyl]-[1,2,4]triazolo[1,5-a]pyridin-2-yl}-amide], the EC50 (in assay [1]; in the assay on MMP13 in SW1353 cells) was greater than 1000 nM throughout. Moreover, the figures for the IC50 in assay [2] and in assay [3] were less than 100 nM and 501 to 1000 nM, respectively.
As to `O=C(NC1CCCCC1)c1ccc(-c2cccc3nc(NC(=O)C4CC4)nn23)cc1` [Compound 26, N-cyclohexyl-4-(2-(cyclopropanecarboxamido)-[1,2,4]triazolo[1,5-a]pyridin-5-yl)benzamide], the concentration giving a half-maximal response (EC50) (in assay [1]; in the assay with MMP13 in SW1353 cells) was greater than 1000 nM throughout. In addition, the half-inhibitory concentration (IC50) in assay [2] and in assay [3] was 101 to 500 nM each time.
With `O=C(Nc1nc2cccc(-c3ccc(C(=O)N4CCOCC4)cc3)n2n1)C1CC1` [Compound 24, N-(5-(4-(morpholine-4-carbonyl)phenyl)-[1,2,4]triazolo[1,5-a]pyridin-2-yl)cyclopropanecarboxamide], the EC50 in the assay with MMP13 in SW1353 cells was greater than 1000 nM. Moreover, the IC50 in assay [2] and in assay [3] was 101 to 500 nM each time.
Regarding `O=C(Nc1cccnn1)c1ccc(-c2cccc3nc(NC(=O)C4CC4)nn23)cc1` [Compound 221, 4-[2-(Cyclopropanecarbonyl-amino)-[1,2,4]triazolo[1,5-a]pyridin-5-yl]-N-pyridazin-3-yl-benzamide], the EC50 (in assay [1]; in the assay on MMP13 in SW1353 cells) was greater than 1000 nM each time. Further, the values for the IC50 in assay [2] and in assay [3] were less than 100 nM and 101 to 500 nM, respectively.
`CC(C)(C)C1CCN(C(=O)c2ccc(-c3cccc4nc(NC(=O)C5CC5)nn34)cc2)CC1` [Compound 27, N-(5-(4-(4-tert-butylpiperidine-1-carbonyl)phenyl)-[1,2,4]triazolo[1,5-a]pyridin-2-yl)cyclopropanecarboxamide]: the EC50 (in assay [1]; in the assay on MMP13 in SW1353 cells) was greater than 1000 nM in each case. In addition, the IC50 fell in the range of 101 to 500 nM in assay [2] and 501 to 1000 nM in assay [3].
As to `O=C(Nc1nc2cccc(-c3ccc(CN4CCOC(c5ccccc5)C4)cc3)n2n1)C1CC1` (stereo not drawn) [Compound 231], the EC50 in assay [1] is greater than 1000 nM; with MMP13 in SW1353 cells, 1 to 500 nM. For the same compound, the results for the IC50 in assay [2] and in assay [3] were less than 100 nM and 101 to 500 nM, respectively.
Consider `O=C(Nc1nc2cccc(-c3ccc(C(=O)N4CCCNCC4)cc3)n2n1)C1CC1` [Compound 28, N-(5-(4-(1,4-diazepane-1-carbonyl)phenyl)-[1,2,4]triazolo[1,5-a]pyridin-2-yl)cyclopropanecarboxamide], for which the EC50 (in assay [1]; in the assay on MMP13 in SW1353 cells) was greater than 1000 nM each time. Further, the IC50 is 101 to 500 nM in assay [2] and greater than 1000 nM in assay [3].
Consider `O=C(Nc1nc2cccc(-c3ccc(OCc4ccc(-c5nnn[nH]5)nc4)cc3)n2n1)C1CC1` [Compound 183, Cyclopropanecarboxylic Acid (5-{4-[6-(2H-tetrazol-5-yl)-pyridin-3-ylmethoxy]-phenyl}-[1,2,4]triazolo[1,5-a]pyridin-2-yl)-amide], for which the EC50 (in assay [1]; with MMP13 in SW1353 cells) was greater than 1000 nM throughout. In assay [2], the IC50 was less than 100 nM.
Take `O=C(Nc1nc2cccc(-c3ccc(NS(=O)(=O)c4ccccc4)cc3)n2n1)C1CC1` [Compound 79, N-(5-(4-(phenylsulfonamido)phenyl)-[1,2,4]triazolo[1,5-a]pyridin-2-yl)cyclopropanecarboxamide]: the EC50 in assay [1] was greater than 1000 nM; in the assay with MMP13 in SW1353 cells it was 501 to 1000 nM. The IC50 in assay [2] is less than 100 nM.
For the compound `N#CC1CN(Cc2ccc(-c3cccc4nc(NC(=O)C5CC5)nn34)cc2)C1` [Compound 303, Cyclopropanecarboxylic acid {5-[4-(3-cyano-azetidin-1-ylmethyl)-phenyl]-[1,2,4]triazolo[1,5-a]pyridin-2-yl}-amide], the EC50 in assay [1] lay within 501 to 1000 nM. In addition, the IC50 in assay [2] is less than 100 nM; in assay [3] it was 101 to 500 nM.
The like results for `COC1CCN(Cc2ccc(-c3cccc4nc(NC(=O)C5CC5)nn34)cc2)CC1` [Compound 281, Cyclopropanecarboxylic acid {5-[4-(4-methoxy-piperidin-1-ylmethyl)-phenyl]-[1,2,4]triazolo[1,5-a]pyridin-2-yl}-amide] were, in that order, greater than 1000 nM, less than 100 nM and greater than 1000 nM.
The like results for `N#Cc1ccc(COC2CN(c3ccc(-c4cccc5nc(NC(=O)C6CC6)nn45)cc3)C2)cc1` [Compound 284, Cyclopropanecarboxylic acid (5-{4-[3-(4-cyano-benzyloxy)-azetidin-1-yl]-phenyl}-[1,2,4]triazolo[1,5-a]pyridin-2-yl)-amide] were, in that order, greater than 1000 nM, less than 100 nM and 501 to 1000 nM.
For the compound `CC(=O)NC1CN(C(=O)c2ccc(-c3cccc4nc(NC(=O)C5CC5)nn34)cc2)C1` [Compound 287, Cyclopropanecarboxylic acid {5-[4-(3-acetylamino-azetidine-1-carbonyl)-phenyl]-[1,2,4]triazolo[1,5-a]pyridin-2-yl}-amide], the EC50 (in assay [1]; in the assay with MMP13 in SW1353 cells) was greater than 1000 nM throughout. In addition, the IC50 in assay [2] was less than 100 nM.
